# Assay results as given in PubChem BioAssay AID256 (DTP/NCI, 2004).
# Where “and” joins values, the source holds several entries; their conditions need not be identical. Identical values can stand only once. Toxic doses and inconclusive results are not listed.
# Test system: CD2F1 mice, L1210 leukemia ip, survival T/C
# Experiment: NCI In Vivo Anticancer Drug Screen. Data for tumor model L1210 Leukemia (intraperitoneal) in CD2F1 (CDF1) mice
# Details: higher = longer survival
# In short: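 In this screen, transplantable tumors were grown in mice given either the compound or its vehicle. Results were expressed as the treated measurement relative to the control measurement.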
# [1] = endpoint: mean survival time, dose: 12.5 mg/kg/injection, schedule: Q04DX002 (ip), vehicle: saline
# [2] = endpoint: mean survival time, dose: 25.0 mg/kg/injection, schedule: Q04DX002 (ip), vehicle: saline
# [3] = endpoint: mean survival time, dose: 50.0 mg/kg/injection, schedule: Q04DX002 (ip), vehicle: saline
# [4] = endpoint: mean survival time, dose: 100.0 mg/kg/injection, schedule: Q04DX003 (ip), vehicle: saline with Tween-80
# [5] = endpoint: mean survival time, dose: 200.0 mg/kg/injection, schedule: Q04DX003 (ip), vehicle: saline with Tween-80
# [6] = endpoint: mean survival time, dose: 400.0 mg/kg/injection, schedule: Q04DX003 (ip), vehicle: saline with Tween-80
# [7] = endpoint: mean survival time, dose: 100.0 mg/kg/injection, schedule: Q01DX001 (ip), vehicle: saline with Tween-80
# [8] = endpoint: mean survival time, dose: 200.0 mg/kg/injection, schedule: Q01DX001 (ip), vehicle: saline with Tween-80
# [9] = endpoint: mean survival time, dose: 400.0 mg/kg/injection, schedule: Q01DX001 (ip), vehicle: saline with Tween-80
# [10] = endpoint: mean survival time, dose: 100.0 mg/kg/injection, schedule: Q01DX009 (ip), vehicle: saline with Tween-80
# [11] = endpoint: mean survival time, dose: 200.0 mg/kg/injection, schedule: Q01DX009 (ip), vehicle: saline with Tween-80
# [12] = endpoint: mean survival time, dose: 100.0 mg/kg/injection, schedule: Q04DX002 (ip), vehicle: saline
# [13] = endpoint: mean survival time, dose: 50.0 mg/kg/injection, schedule: Q01DX009 (ip), vehicle: saline with Tween-80
compound,measurement,setting,value
O=C(c1ccccn1)c1ccccn1,T/C,"endpoint: mean survival time, dose: 100.0 mg/kg/injection, schedule: Q04DX003 (ip), vehicle: saline",96 % of control
same,T/C,"endpoint: mean survival time, dose: 200.0 mg/kg/injection, schedule: Q04DX003 (ip), vehicle: saline",104 % of control
same,T/C,"endpoint: mean survival time, dose: 400.0 mg/kg/injection, schedule: Q04DX003 (ip), vehicle: saline",102 % of control
OC1CCN(c2c3ccccc3nc3ccccc23)CC1,T/C,[1],100 % of control
same,T/C,[2],100 % of control
same,T/C,[3],116 % of control
[Cl][Pt+2][Cl].[NH-]CC1(C[NH-])CCCC1,T/C,"endpoint: mean survival time, dose: 1.56 mg/kg/injection, schedule: Q04DX003 (ip), vehicle: saline",122 % of control
same,T/C,"endpoint: mean survival time, dose: 3.12 mg/kg/injection, schedule: Q04DX003 (ip), vehicle: saline",152 % of control
same,T/C,"endpoint: mean survival time, dose: 6.25 mg/kg/injection, schedule: Q04DX003 (ip), vehicle: saline",197 % of control
same,T/C,"endpoint: mean survival time, dose: 12.5 mg/kg/injection, schedule: Q04DX003 (ip), vehicle: saline with Tween-80",160 % of control
same,T/C,"endpoint: mean survival time, dose: 12.5 mg/kg/injection, schedule: Q04DX003 (ip), vehicle: saline",260 % of control
same,T/C,"endpoint: mean survival time, dose: 25.0 mg/kg/injection, schedule: Q04DX003 (ip), vehicle: saline with Tween-80",98 % of control
same,T/C,"endpoint: mean survival time, dose: 25.0 mg/kg/injection, schedule: Q04DX003 (ip), vehicle: saline",114 % of control
same,T/C,"endpoint: median survival time, dose: 1.0 mg/kg/injection, schedule: Q01DX009 (ip), vehicle: saline",232 % of control
same,T/C,"endpoint: median survival time, dose: 2.0 mg/kg/injection, schedule: Q01DX009 (ip), vehicle: saline",175 % of control
same,T/C,"endpoint: median survival time, dose: 4.0 mg/kg/injection, schedule: Q01DX001 (ip), vehicle: saline",201 % of control
same,T/C,"endpoint: median survival time, dose: 4.0 mg/kg/injection, schedule: Q01DX009 (ip), vehicle: saline",101 % of control
same,T/C,"endpoint: median survival time, dose: 8.0 mg/kg/injection, schedule: Q01DX001 (ip), vehicle: saline",200 % of control
same,T/C,"endpoint: median survival time, dose: 8.0 mg/kg/injection, schedule: Q01DX009 (ip), vehicle: saline",97 % of control
same,T/C,"endpoint: median survival time, dose: 12.0 mg/kg/injection, schedule: Q01DX001 (ip), vehicle: saline",104 % of control
same,T/C,"endpoint: median survival time, dose: 18.0 mg/kg/injection, schedule: Q01DX001 (ip), vehicle: saline",97 % of control
CC(=O)OCC1OC(OC(C)=O)C(On2nnc3c(-c4ccccc4)c(C)nn32)C(OC(C)=O)C1OC(C)=O (stereo unspecified),T/C,"endpoint: median survival time, dose: 12.5 mg/kg/injection, schedule: Q01DX005 (ip), vehicle: Klucel (hydroxypropylcellulose) (HPC)",93 % of control
same,T/C,"endpoint: median survival time, dose: 25.0 mg/kg/injection, schedule: Q01DX005 (ip), vehicle: Klucel (hydroxypropylcellulose) (HPC)",95 % of control
same,T/C,"endpoint: median survival time, dose: 50.0 mg/kg/injection, schedule: Q01DX005 (ip), vehicle: Klucel (hydroxypropylcellulose) (HPC)",97 % of control
same,T/C,"endpoint: median survival time, dose: 100.0 mg/kg/injection, schedule: Q01DX005 (ip), vehicle: Klucel (hydroxypropylcellulose) (HPC)",95 % of control
COc1cc(/C=N/NC(=O)c2cccs2)cc(OC)c1OC,T/C,[4],98 % of control
same,T/C,[5],93 % of control
same,T/C,[6],88 % of control
FC(F)(F)C(F)(F)CI,T/C,[7],105 % of control
same,T/C,[8],98 % of control
same,T/C,[9],94 % of control
Nc1nc2c(nnn2C2CC(O)C(CO)C2)c(=O)[nH]1 (stereo unspecified),T/C,[10],100 % of control
same,T/C,[11],104 % of control
Cc1ccc(C(C)C)c(OCCN)c1,T/C,[2],94 % of control
same,T/C,[3],97 % of control
same,T/C,[12],93 % of control and 97 % of control
CC(O)Cc1c(Cc2ccccc2)nc(-c2ccccc2)[nH]c1=O (stereo unspecified),T/C,[13],91 % of control
same,T/C,[10],90 % of control
same,T/C,[4],95 % of control
same,T/C,[5],90 % of control
same,T/C,[6],88 % of control
CC1=NN(c2ccccc2)C(=O)CC1,T/C,[4],101 % of control
same,T/C,[5],101 % of control
same,T/C,[6],103 % of control
CCOC(=O)NC(NC(=O)OCC)C(Cl)Cl,T/C,[7],103 % of control
same,T/C,[8],105 % of control
same,T/C,[9],97 % of control
COc1ccc(C2C3CN(C4CCCCC4)C(=O)C3NN2C(C)=O)cc1 (stereo unspecified),T/C,[10],91 % of control
same,T/C,[11],89 % of control
same,T/C,"endpoint: mean survival time, dose: 400.0 mg/kg/injection, schedule: Q01DX009 (ip), vehicle: saline with Tween-80",89 % of control
C[C@]12CCCC[C@@H]1CC[C@@H]1[C@@H]2CC[C@]2(C)[C@@H](N(CCO)CCCO)CC[C@@H]12,T/C,"endpoint: mean survival time, dose: 100.0 mg/kg/injection, schedule: Q04DX003 (sc), vehicle: steriod suspending solution",98 % of control
same,T/C,"endpoint: mean survival time, dose: 200.0 mg/kg/injection, schedule: Q04DX003 (sc), vehicle: steriod suspending solution",91 % of control
same,T/C,"endpoint: mean survival time, dose: 400.0 mg/kg/injection, schedule: Q04DX003 (sc), vehicle: steriod suspending solution",107 % of control
c1ccc2[nH]c(CN(CCN(Cc3nc4ccccc4[nH]3)Cc3nc4ccccc4[nH]3)Cc3nc4ccccc4[nH]3)nc2c1,T/C,"endpoint: median survival time, dose: 3.12 mg/kg/injection, schedule: Q01DX005 (ip), vehicle: DMSO",100 % of control
same,T/C,"endpoint: median survival time, dose: 6.25 mg/kg/injection, schedule: Q01DX005 (ip), vehicle: DMSO",100 % of control
Cc1cc(NCCCN(C)C)c2ccc3c(ccc4c(NCCCN(C)C)cc(C)nc43)c2n1,T/C,"endpoint: median survival time, dose: 0.38 mg/kg/injection, schedule: Q01DX009 (ip), vehicle: saline",95 % of control
same,T/C,"endpoint: median survival time, dose: 0.75 mg/kg/injection, schedule: Q01DX009 (ip), vehicle: saline",93 % of control
same,T/C,"endpoint: median survival time, dose: 1.5 mg/kg/injection, schedule: Q01DX009 (ip), vehicle: saline",113 % of control
same,T/C,"endpoint: median survival time, dose: 3.0 mg/kg/injection, schedule: Q01DX009 (ip), vehicle: saline",110 % of control
CC(=O)OCC(OC(C)=O)C(OC(C)=O)C(/C=N\Nc1ccccc1)=N/Nc1ccccc1 (stereo unspecified),T/C,"endpoint: mean survival time, dose: 37.5 mg/kg/injection, schedule: Q01DX001 (ip), vehicle: saline with Tween-80",92 % of control
same,T/C,"endpoint: mean survival time, dose: 75.0 mg/kg/injection, schedule: Q01DX001 (ip), vehicle: saline with Tween-80",96 % of control
same,T/C,"endpoint: mean survival time, dose: 150.0 mg/kg/injection, schedule: Q01DX001 (ip), vehicle: saline with Tween-80",91 % of control
O=C(OC1(c2c(F)c(F)c(F)c(F)c2F)C2C=CC1CC2)c1ccc([N+](=O)[O-])cc1 (stereo unspecified),T/C,"endpoint: mean survival time, dose: 50.0 mg/kg/injection, schedule: Q04DX002 (ip), vehicle: saline with Tween-80",102 % of control
same,T/C,"endpoint: mean survival time, dose: 100.0 mg/kg/injection, schedule: Q04DX002 (ip), vehicle: saline with Tween-80",105 % of control
same,T/C,"endpoint: mean survival time, dose: 200.0 mg/kg/injection, schedule: Q04DX002 (ip), vehicle: saline with Tween-80",98 % of control
same,T/C,"endpoint: mean survival time, dose: 400.0 mg/kg/injection, schedule: Q04DX002 (ip), vehicle: saline with Tween-80",90 % of control
O=C(O)C1CC(c2ccccc2)=NN1c1ccccc1 (stereo unspecified),T/C,"endpoint: mean survival time, dose: 12.5 mg/kg/injection, schedule: Q01DX009 (ip), vehicle: water",101 % of control and 103 % of control and 104 % of control
same,T/C,"endpoint: mean survival time, dose: 25.0 mg/kg/injection, schedule: Q01DX009 (ip), vehicle: water",96 % of control and 101 % of control and 102 % of control
same,T/C,"endpoint: mean survival time, dose: 50.0 mg/kg/injection, schedule: Q01DX009 (ip), vehicle: water",96 % of control and 102 % of control (2×)
same,T/C,"endpoint: mean survival time, dose: 100.0 mg/kg/injection, schedule: Q01DX009 (ip), vehicle: water",93 % of control and 102 % of control and 104 % of control
same,T/C,"endpoint: mean survival time, dose: 200.0 mg/kg/injection, schedule: Q01DX009 (ip), vehicle: water",102 % of control (2×) and 112 % of control
CC(=O)NCN(C)N=O,T/C,[12],91 % of control
same,T/C,"endpoint: mean survival time, dose: 200.0 mg/kg/injection, schedule: Q04DX002 (ip), vehicle: saline",91 % of control
same,T/C,"endpoint: mean survival time, dose: 400.0 mg/kg/injection, schedule: Q04DX002 (ip), vehicle: saline",91 % of control
c1ccc(-c2cc3ccccc3c(-c3ccccc3)c2-c2ccccc2)cc1,T/C,"endpoint: mean survival time, dose: 150.0 mg/kg/injection, schedule: Q01DX001 (ip), vehicle: other",90 % of control
same,T/C,"endpoint: mean survival time, dose: 300.0 mg/kg/injection, schedule: Q01DX001 (ip), vehicle: other",88 % of control
COC(=O)c1ccc(C)c(NC2=NCCO2)c1,T/C,"endpoint: mean survival time, dose: 6.25 mg/kg/injection, schedule: Q01DX009 (ip), vehicle: saline with Tween-80",96 % of control
same,T/C,"endpoint: mean survival time, dose: 12.5 mg/kg/injection, schedule: Q01DX009 (ip), vehicle: saline with Tween-80",97 % of control
same,T/C,"endpoint: mean survival time, dose: 25.0 mg/kg/injection, schedule: Q01DX009 (ip), vehicle: saline with Tween-80",102 % of control
same,T/C,[13],105 % of control
same,T/C,[7],97 % of control
same,T/C,[8],97 % of control
same,T/C,[9],93 % of control
O=C(O)C1SCCCS1,T/C,[1],105 % of control
same,T/C,[2],94 % of control
same,T/C,[3],94 % of control
